Measured values as given in PubChem BioAssay (NCI).
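Cultured in 96-well plates, cells were exposed to test compound for 48 hours across five concentrations. GI50 = concentration required for 50% inhibition of growth. Definition used: TGI = concentration required for complete inhibition of growth.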

Tests used:
Test in all cases: DTP human tumour cell line panel, 48 h
MDA-MB-231 breast = system: MDA-MB-231 breast
UO-31 renal = system: UO-31 renal
CAKI-1 renal = system: CAKI-1 renal
MDA-MB-435 = system: MDA-MB-435
U251 CNS = system: U251 CNS
OVCAR-3 ovarian = system: OVCAR-3 ovarian
HS 578T breast = system: HS 578T breast
K-562 leukemia = system: K-562 leukemia
M14 melanoma = system: M14 melanoma
PC-3 prostate = system: PC-3 prostate

Row | SMILES | GI50 (MDA-MB-231 breast) [µM] | TGI (MDA-MB-231 breast) [µM] | GI50 (UO-31 renal) [µM] | TGI (UO-31 renal) [µM] | GI50 (CAKI-1 renal) [µM] | TGI (CAKI-1 renal) [µM] | GI50 (MDA-MB-435) [µM] | TGI (MDA-MB-435) [µM] | GI50 (U251 CNS) [µM] | TGI (U251 CNS) [µM] | GI50 (OVCAR-3 ovarian) [µM] | TGI (OVCAR-3 ovarian) [µM] | GI50 (HS 578T breast) [µM] | TGI (HS 578T breast) [µM] | GI50 (K-562 leukemia) [µM] | TGI (K-562 leukemia) [µM] | GI50 (M14 melanoma) [µM] | TGI (M14 melanoma) [µM] | GI50 (PC-3 prostate) [µM] | TGI (PC-3 prostate) [µM]
1 | COC12C=C/C(=C(/C(=O)OCc3cncnc3)C(=O)CCCCCCCCC3(OC)C=C/C(=C(/C(=O)OCc4cncnc4)C(=O)CCCCCCCC1)O3)O2 | 0.597 | > 50 | 0.542 | 1.28 | 0.667 | 2.11 | 0.099 | 0.208 | 0.212 | 1.06 | 0.195 | 1.07 | 1.3 | 6.24 | 0.188 | 1.14 | 0.167 | 1.61 |  | 
2 | COc1cc(/C=C\c2cc(OC)c(OC)c(OC)c2)cc(NC(=O)/C=C/c2cc(OC)c(OC)c(OC)c2)c1OC | 5.43 | > 100 | 1.09 | > 100 | 2.8 | > 100 | 1.54 | 4.84 | 6.71 | > 100 | 10.8 | > 100 | > 100 | > 100 |  |  | 3.78 | > 100 | 3.02 | > 100
3 | O=C(c1ccccc1)c1ccccc1-c1ccccc1 | 5.14 | > 100 | 6.99 | 98.1 | 1.52 | 7.85 | 0.325 | 7.87 | 4.21 | 46.2 | 1.72 | 4.55 | 1.58 | 10.2 |  |  | 1.75 | 13 | 3.67 | > 100
4 | O=C(COc1ccc(Cl)cc1)N1N=C(c2ccc(Cl)cc2)CC1(O)c1ccccc1 (stereo not drawn) |  |  |  | > 100 |  | > 100 |  |  |  | 38.3 |  | 39.2 |  |  |  | > 42.7 |  | 34.5 |  | 
5 | CC1=C(C(=O)Nc2cc(=O)n(C)c(=O)n2C)C(c2ccco2)C(C(=O)Nc2cc(=O)n(C)c(=O)n2C)=C(C)N1 |  |  |  | > 100 |  | > 100 |  |  |  | > 100 |  | > 100 |  |  |  | > 100 |  | > 100 |  | 
6 | NS(=O)(=O)c1ccc(-n2nc(-c3ccc(Cl)cc3)cc2-c2cc(O)ccc2O)cc1 | 3.32 | 13.9 | 26.5 | > 100 | 7.9 | 22.8 | 11.7 | 28 |  |  | 4.34 | 13.7 | 34.2 | 78.9 | 4.9 | 21.2 | 5.82 | 17.4 | 8.37 | 23.8
7 | COC(=O)C1CC23CCCN4CCC5(c6ccccc6N(C=O)C15CC2)C43 (stereo not drawn) |  | > 100 |  | > 100 |  | > 100 |  | > 100 |  | > 100 |  | > 100 |  | > 100 |  |  |  | > 100 |  | > 100
8 | COc1ccc(C(=S)N2CCN(c3cccc(C)c3)CC2)cc1OC | 5.85 | > 100 | 4.37 | > 100 | 3.21 | > 100 | 1.09 | 4.04 | 5.8 | > 100 | 2.06 | 5.16 | 3.16 | 31.7 | 1.2 | > 100 | 3.18 | > 100 |  | 
9 | O=[N+]([O-])c1ccc(C[P+](c2ccccc2)(c2ccccc2)c2ccccc2)cc1 |  |  |  | > 100 |  |  |  |  |  | > 100 |  | > 100 |  |  |  | > 100 |  | > 100 |  | 
10 | CC1(C)C2CCC13C(=O)C1OC3(C2)C2C(=O)c3cc4ccccc4cc3C(=O)C12 (stereo not drawn) | 22.1 | 49.4 | 19.6 | > 100 | 1.29 | 5.33 | 8.58 | > 100 | 15.1 | 34.4 |  |  | 53.7 | > 100 | 4.92 | 33.7 | 10.7 | > 100 | 3.85 | 27.8
11 | CCCCCCCCCCCc1nnc(N)o1 |  |  |  | 38.3 |  |  |  |  |  | > 100 |  | > 100 |  |  |  | > 100 |  | > 100 |  | 
12 | O=C(O)C1=C(O)C(C(=O)O)C23CCCCCCCCCCC12C(C(=O)O)C(O)=C3C(=O)O (stereo not drawn) |  |  |  | > 100 |  |  |  |  |  | > 100 |  | > 100 |  |  |  | > 100 |  | > 100 |  | 
13 | COc1ccc(C23C(=O)c4ccccc4N2O[C@H]2C(=O)N(c4ccccc4)C(=O)[C@H]23)cc1 (stereo partly drawn) |  |  |  | > 100 |  | > 100 |  |  |  | > 100 |  | > 100 |  |  |  | > 100 |  | > 100 |  | 
14 | Cc1cc(CC(=O)NCCO)n(CCO)c(=O)c1 |  |  |  | > 100 |  | > 100 |  |  |  | > 100 |  | > 100 |  |  |  | > 100 |  | > 100 |  | 
15 | CCCCCCCCNc1cc2c3c(c1)CCCN3CCC2 | 2.56 | 11.7 | 3.17 | 17.7 |  |  | 0.951 | 11.7 | 0.39 | 15.1 | 1.55 | 5.81 |  |  | 0.433 | > 100 | 2.5 | 13.6 | 0.926 | 12.8
16 | O=C1N(C2CCCCC2)CC12CCCCC2 |  |  |  | > 100 |  |  |  |  |  | > 100 |  |  |  |  |  | > 100 |  | > 100 |  | 
17 | O=C(O)CCC(=O)N1c2ccccc2CC1c1c[nH]c2ccccc12 (stereo not drawn) |  |  |  | > 100 |  | > 100 |  |  |  | > 100 |  | > 100 |  |  |  | > 100 |  | > 100 |  | 
18 | Cc1nnn[n-]1.N.N.N.N.N.[Cl-].[Co+3] |  |  | > 100 | > 100 |  |  |  |  | > 100 | > 100 | > 100 | > 100 |  |  | > 100 | > 100 | > 100 | > 100 |  | 
19 | COC(=O)NC(=O)c1cn(C2OC(CO)C(O)C2O)c(=O)[nH]c1=O (stereo not drawn) |  |  |  | > 100 |  | > 100 |  |  |  | > 100 |  | > 100 |  |  |  | > 100 |  | > 100 |  | 
